Results taken from ChEMBL document CHEMBL1201861, “Genomics of Drug Sensitity in Cancer screening data, Wellcome Trust Sanger Institute”.

Assays:
Assay in all cases: cells
SHP77 = format: functional, cell-based, Homo sapiens, SHP-77; settings: Homo sapiens, SHP77;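 also: growth inhibition of human SHP-77 cells measured by a cell viability assay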
Description: SANGER: Inhibition of human SHP-77 cell growth in a cell viability assay.

A498 = format: functional, cell-based, Homo sapiens; settings: Homo sapiens, A498;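 also: growth inhibition of human A498 cells, read out with a cell viability assay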
Description: SANGER: Inhibition of human A498 cell growth in a cell viability assay.

NEC8 = format: functional, cell-based, Homo sapiens; settings: Homo sapiens, NEC8;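 also: growth inhibition of human NEC8 cells, read out by a cell viability assay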
Description: SANGER: Inhibition of human NEC8 cell growth in a cell viability assay.

OCUB-M = format: functional, cell-based, Homo sapiens; settings: Homo sapiens, OCUB-M;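 also: growth inhibition of the cancer cell line, read out through a cell viability assay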
Description: SANGER: Inhibition of human OCUB-M cell growth in a cell viability assay.

SW982 = format: functional, cell-based, Homo sapiens; settings: Homo sapiens, SW982;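 also: growth inhibition of SW982 cells, read out with a cell viability assay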
Description: SANGER: Inhibition of human SW982 cell growth in a cell viability assay.

GAK = format: functional, cell-based, Homo sapiens; settings: Homo sapiens, GAK;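 also: cell growth inhibition read out by a cell viability assay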
Description: SANGER: Inhibition of human GAK cell growth in a cell viability assay.

MZ7-mel = format: functional, cell-based, Homo sapiens; settings: Homo sapiens, MZ7-mel;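 also: growth inhibition of human MZ7-mel cells, measured by a cell viability assay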
Description: SANGER: Inhibition of human MZ7-mel cell growth in a cell viability assay.

LC-2-ad = format: functional, cell-based, Homo sapiens; settings: Homo sapiens, LC-2-ad;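 also: growth inhibition of human LC-2-ad cells, read out with a cell viability assay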
Description: SANGER: Inhibition of human LC-2-ad cell growth in a cell viability assay.

KE-37 = format: functional, cell-based, Homo sapiens; settings: Homo sapiens, KE-37;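 also: growth inhibition of KE-37 cells, read out with a cell viability assay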
Description: SANGER: Inhibition of human KE-37 cell growth in a cell viability assay.

EM-2 = format: functional, cell-based, Homo sapiens; settings: Homo sapiens, EM-2;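 also: growth inhibition of EM-2 cells, read out with a cell viability assay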
Description: SANGER: Inhibition of human EM-2 cell growth in a cell viability assay.

HEL = format: functional, cell-based, Homo sapiens; settings: Homo sapiens, HEL;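 also: growth inhibition of HEL cells, read out with a cell viability assay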
Description: SANGER: Inhibition of human HEL cell growth in a cell viability assay.

COLO-668 = format: functional, cell-based, Homo sapiens; settings: Homo sapiens, COLO-668
Description: SANGER: Inhibition of human COLO-668 cell growth in a cell viability assay.

RPMI-8226 = format: functional, cell-based, Homo sapiens; settings: Homo sapiens, RPMI-8226
Description: SANGER: Inhibition of human RPMI-8226 cell growth in a cell viability assay.

A704 = format: functional, cell-based, Homo sapiens; settings: Homo sapiens, A704;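 also: growth inhibition of human A704 cells, read out with a cell viability assay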
Description: SANGER: Inhibition of human A704 cell growth in a cell viability assay.

NCI-H209 = format: functional, cell-based, Homo sapiens; settings: Homo sapiens, NCI-H209;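 also: growth inhibition of human NCI-H209 cells, measured by a cell viability assay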
Description: SANGER: Inhibition of human NCI-H209 cell growth in a cell viability assay.

EW-3 = format: functional, cell-based, Homo sapiens; settings: Homo sapiens, EW-3;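 also: cell viability assay read-out, IC50 reflects inhibition of growth of the EW-3 cells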
Description: SANGER: Inhibition of human EW-3 cell growth in a cell viability assay.

LS-411N = format: functional, cell-based, Homo sapiens; settings: Homo sapiens, LS-411N
KNS-81-FD = format: functional, cell-based, Homo sapiens; settings: Homo sapiens, KNS-81-FD;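 also: growth inhibition of KNS-81-FD cells, read out with a cell viability assay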
Description: SANGER: Inhibition of human KNS-81-FD cell growth in a cell viability assay.

SW684 = format: functional, cell-based, Homo sapiens; settings: Homo sapiens, SW684;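 also: growth inhibition of human SW684 cells, measured by a cell viability assay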
Description: SANGER: Inhibition of human SW684 cell growth in a cell viability assay.

GT3TKB = format: functional, cell-based, Homo sapiens; settings: Homo sapiens, GT3TKB;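 also: growth inhibition of the cell line, read out with a cell viability assay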
Description: SANGER: Inhibition of human GT3TKB cell growth in a cell viability assay.

ES1 = format: functional, cell-based, Homo sapiens; settings: Homo sapiens, ES1;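 also: growth inhibition of ES1 cells, read out with a cell viability assay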
Description: SANGER: Inhibition of human ES1 cell growth in a cell viability assay.

NB10 = format: functional, cell-based, Homo sapiens; settings: Homo sapiens, NB10;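 also: growth inhibition of NB10 cells, read out by a cell viability assay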
Description: SANGER: Inhibition of human NB10 cell growth in a cell viability assay.

TK-10 = format: functional, cell-based, Homo sapiens; settings: Homo sapiens, TK-10;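 also: growth inhibition of TK-10 cells, read out in a cell viability assay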
Description: SANGER: Inhibition of human TK10 cell growth in a cell viability assay.

SH-4 = format: functional, cell-based, Homo sapiens; settings: Homo sapiens, SH-4;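 also: growth inhibition of SH-4 cells, read out with a cell viability assay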
Description: SANGER: Inhibition of human SH-4 cell growth in a cell viability assay.

ES8 = format: functional, cell-based, Homo sapiens; settings: Homo sapiens, ES8;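 also: growth inhibition of human ES8 cells, read out with a cell viability assay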
Description: SANGER: Inhibition of human ES8 cell growth in a cell viability assay.

KINGS-1 = format: functional, cell-based, Homo sapiens; settings: Homo sapiens, KINGS-1;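 also: cell viability assay measuring suppression of KINGS-1 cell growth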
Description: SANGER: Inhibition of human KINGS-1 cell growth in a cell viability assay.

BB30-HNC = format: functional, cell-based, Homo sapiens; settings: Homo sapiens, BB30-HNC;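 also: growth inhibition of the cultured cell line, read out by a cell viability assay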
Description: SANGER: Inhibition of human BB30-HNC cell growth in a cell viability assay.

SW 954 = format: functional, cell-based, Homo sapiens; settings: Homo sapiens, SW 954;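 also: growth inhibition of SW954 human cancer cells, read out as cell viability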
Description: SANGER: Inhibition of human SW954 cell growth in a cell viability assay.

SF-268 = format: functional, cell-based, Homo sapiens; settings: Homo sapiens, SF-268;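 also: growth inhibition of SF-268 cells determined with a cell viability assay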
Description: SANGER: Inhibition of human SF268 cell growth in a cell viability assay.

KMOE-2 = format: functional, cell-based, Homo sapiens; settings: Homo sapiens, KMOE-2;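 also: growth inhibition of human KMOE-2 cells, read out with a cell viability assay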
Description: SANGER: Inhibition of human KMOE-2 cell growth in a cell viability assay.

LB996-RCC = format: functional, cell-based, Homo sapiens; settings: Homo sapiens, LB996-RCC
Description: SANGER: Inhibition of human LB996-RCC cell growth in a cell viability assay.

HCC 2998 = format: functional, cell-based, Homo sapiens; settings: Homo sapiens, HCC 2998;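 also: growth inhibition of human HCC2998 cells, measured with a cell viability read-out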
Description: SANGER: Inhibition of human HCC2998 cell growth in a cell viability assay.

D-502MG = format: functional, cell-based, Homo sapiens; settings: Homo sapiens, D-502MG
Description: SANGER: Inhibition of human D-502MG cell growth in a cell viability assay.

BT-474 = format: functional, cell-based, Homo sapiens; settings: Homo sapiens, BT-474
Description: SANGER: Inhibition of human BT-474 cell growth in a cell viability assay.

U-87 MG = format: functional, cell-based, Homo sapiens, U-87MG ATCC; settings: Homo sapiens, U-87 MG;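 also: growth inhibition of the cells measured with a viability assay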
Description: SANGER: Inhibition of human U-87-MG cell growth in a cell viability assay.

KM-H2 = format: functional, cell-based, Homo sapiens; settings: Homo sapiens, KM-H2;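 also: growth inhibition of KM-H2 cells, read out by a cell viability assay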
Description: SANGER: Inhibition of human KM-H2 cell growth in a cell viability assay.

no-11 = format: functional, cell-based, Homo sapiens; settings: Homo sapiens;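 also: growth inhibition of human NO-11 cells, read out with a cell viability assay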
Description: SANGER: Inhibition of human no-11 cell growth in a cell viability assay.

HOP-62 = format: functional, cell-based, Homo sapiens; settings: Homo sapiens, HOP-62;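 also: cell growth inhibition determined with a viability assay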
Description: SANGER: Inhibition of human HOP-62 cell growth in a cell viability assay.

CGTH-W-1 = format: functional, cell-based, Homo sapiens; settings: Homo sapiens, CGTH-W-1;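 also: growth inhibition of human CGTH-W-1 cells measured by cell viability assay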
Description: SANGER: Inhibition of human CGTH-W-1 cell growth in a cell viability assay.

ALL-PO = format: functional, cell-based, Homo sapiens; settings: Homo sapiens, ALL-PO;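 also: growth inhibition of ALL-PO cells, read out by a cell viability assay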
Description: SANGER: Inhibition of human ALL-PO cell growth in a cell viability assay.

MPP-89 = format: functional, cell-based, Homo sapiens; settings: Homo sapiens, MPP-89;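 also: growth inhibition of human MPP-89 cells, read out with a cell viability assay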
Description: SANGER: Inhibition of human MPP-89 cell growth in a cell viability assay.

NCI-H226 = format: functional, cell-based, Homo sapiens; settings: Homo sapiens, NCI-H226;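 also: cell viability read-out used to gauge growth inhibition of the cells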
Description: SANGER: Inhibition of human NCI-H226 cell growth in a cell viability assay.

EW-16 = format: functional, cell-based, Homo sapiens; settings: Homo sapiens, EW-16;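 also: growth inhibition of human EW-16 cells, read out as cell viability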
Description: SANGER: Inhibition of human EW-16 cell growth in a cell viability assay.

PSN1 = format: functional, cell-based, Homo sapiens; settings: Homo sapiens, PSN1;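 also: suppression of growth of human PSN1 cells, read out by a cell viability assay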
Description: SANGER: Inhibition of human PSN1 cell growth in a cell viability assay.

MFH-ino = format: functional, cell-based, Homo sapiens; settings: Homo sapiens, MFH-ino;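 also: growth inhibition of human MFH-ino cells, read out by a cell viability assay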
Description: SANGER: Inhibition of human MFH-ino cell growth in a cell viability assay.

SK-MEL-2 = format: functional, cell-based, Homo sapiens; settings: Homo sapiens, SK-MEL-2;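 also: growth inhibition of human SK-MEL-2 cells measured with a cell viability assay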
Description: SANGER: Inhibition of human SK-MEL-2 cell growth in a cell viability assay.

ACN = format: functional, cell-based, Homo sapiens; settings: Homo sapiens, ACN;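 also: growth inhibition of the human ACN cell line, read out via cell viability testing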
Description: SANGER: Inhibition of human ACN cell growth in a cell viability assay.

MZ2-MEL = format: functional, cell-based, Homo sapiens; settings: Homo sapiens, MZ2-MEL;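 also: growth inhibition of MZ2-MEL cells read out with a cell viability assay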
Description: SANGER: Inhibition of human MZ2-MEL cell growth in a cell viability assay.

IST-MEL1 = format: functional, cell-based, Homo sapiens; settings: Homo sapiens, IST-MEL1;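 also: growth inhibition of the cell line, read out with a cell viability assay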
Description: SANGER: Inhibition of human IST-MEL1 cell growth in a cell viability assay.

Oc1ccc2ccccc2c1SSc1c(O)ccc2ccccc12 was tested, and the IC50 (SHP77) was greater than 32 µM, the IC50 (A498) was greater than 32 µM and the IC50 (NEC8) was greater than 32 µM. The IC50 (OCUB-M) was greater than 32 µM, the IC50 (SW982) was greater than 32 µM and the IC50 (GAK) was greater than 32 µM. For the same compound, the IC50 (MZ7-mel) was greater than 32 µM, the IC50 (LC-2-ad) was 24.1 µM and the IC50 (KE-37) was 3.5 µM. The IC50 (EM-2) was greater than 32 µM, the IC50 (HEL) was 3.73 µM and the IC50 (COLO-668) was greater than 32 µM. It also gave an IC50 (RPMI-8226) greater than 32 µM, an IC50 (A704) greater than 32 µM and an IC50 (NCI-H209) greater than 32 µM. The IC50 (EW-3) was 29.5 µM, the IC50 (LS-411N) was greater than 32 µM and the IC50 (KNS-81-FD) was greater than 32 µM. For the same compound, the IC50 (SW684) was greater than 32 µM, the IC50 (GT3TKB) was greater than 32 µM and the IC50 (ES1) was greater than 32 µM. The IC50 (NB10) was greater than 32 µM, the IC50 (TK-10) was greater than 32 µM and the IC50 (SH-4) was greater than 32 µM. It also gave an IC50 (ES8) greater than 32 µM, an IC50 (KINGS-1) greater than 32 µM and an IC50 (BB30-HNC) greater than 32 µM. It also gave an IC50 (SW 954) greater than 32 µM, an IC50 (SF-268) greater than 32 µM and an IC50 (KMOE-2) greater than 32 µM. For the same compound, the IC50 (LB996-RCC) was greater than 32 µM, the IC50 (HCC 2998) was greater than 32 µM and the IC50 (D-502MG) was greater than 32 µM. It also gave an IC50 (BT-474) of 7.41 µM, an IC50 (U-87 MG) greater than 32 µM and an IC50 (KM-H2) greater than 32 µM. The IC50 (no-11) was greater than 32 µM, the IC50 (HOP-62) was greater than 32 µM and the IC50 (CGTH-W-1) was greater than 32 µM. The IC50 (ALL-PO) was 13.9 µM, the IC50 (MPP-89) was greater than 32 µM and the IC50 (NCI-H226) was 12.6 µM. It also gave an IC50 (EW-16) of 24.8 µM, an IC50 (PSN1) greater than 32 µM and an IC50 (MFH-ino) greater than 32 µM. The IC50 (SK-MEL-2) was greater than 32 µM, the IC50 (ACN) was greater than 32 µM and the IC50 (MZ2-MEL) was greater than 32 µM. The IC50 (IST-MEL1) was greater than 32 µM.
O=C(O)c1ccc(-c2c[nH]c3ncc(-c4ccccc4)cc23)cc1C1CCCC1 [GSK-650394] showed an IC50 (SHP77) greater than 16 µM, an IC50 (A498) greater than 16 µM and an IC50 (NEC8) greater than 16 µM. It also gave an IC50 (OCUB-M) of 2.79 µM, an IC50 (SW982) of 13.8 µM and an IC50 (GAK) greater than 16 µM. For the same compound, the IC50 (MZ7-mel) was greater than 16 µM, the IC50 (LC-2-ad) was greater than 16 µM and the IC50 (KE-37) was greater than 16 µM. The IC50 (EM-2) was greater than 16 µM, the IC50 (HEL) was 10.7 µM and the IC50 (COLO-668) was greater than 16 µM. For the same compound, the IC50 (RPMI-8226) was greater than 16 µM, the IC50 (A704) was greater than 16 µM and the IC50 (NCI-H209) was greater than 16 µM. For the same compound, the IC50 (EW-3) was greater than 16 µM, the IC50 (LS-411N) was 10.4 µM and the IC50 (KNS-81-FD) was greater than 16 µM. For the same compound, the IC50 (SW684) was greater than 16 µM, the IC50 (GT3TKB) was greater than 16 µM and the IC50 (ES1) was greater than 16 µM. The IC50 (NB10) was greater than 16 µM, the IC50 (TK-10) was greater than 16 µM and the IC50 (SH-4) was greater than 16 µM. The IC50 (ES8) was 7.13 µM, the IC50 (KINGS-1) was greater than 16 µM and the IC50 (BB30-HNC) was 2.33 µM. It also gave an IC50 (SW 954) of 4.46 µM, an IC50 (SF-268) greater than 16 µM and an IC50 (KMOE-2) greater than 16 µM. For the same compound, the IC50 (LB996-RCC) was greater than 16 µM, the IC50 (HCC 2998) was greater than 16 µM and the IC50 (D-502MG) was greater than 16 µM. It also gave an IC50 (BT-474) greater than 16 µM, an IC50 (U-87 MG) greater than 16 µM and an IC50 (KM-H2) greater than 16 µM. It also gave an IC50 (no-11) greater than 16 µM, an IC50 (HOP-62) greater than 16 µM and an IC50 (CGTH-W-1) of 2.1 µM. For the same compound, the IC50 (ALL-PO) was 5.73 µM, the IC50 (MPP-89) was 9.27 µM and the IC50 (NCI-H226) was 15.6 µM. For the same compound, the IC50 (EW-16) was 5.75 µM, the IC50 (PSN1) was 2.19 µM and the IC50 (MFH-ino) was 1.99 µM. The IC50 (SK-MEL-2) was greater than 16 µM, the IC50 (ACN) was greater than 16 µM and the IC50 (MZ2-MEL) was 6.61 µM. It also gave an IC50 (IST-MEL1) greater than 16 µM.
